In the Deep4Chem optical property database:

Assay: solvent given as SMILES

Cc1ccc(-c2ccc(/C=C/c3ccc(C#N)cc3)cn2)nc1
fluorescence lifetime (in CC#N): 0.6 ns

COC(=O)c1cc(=O)n(C)c2cc(-c3ccc(OC)cc3)sc12
fluorescence lifetime (in ClCCl): 2.3 ns

O=C1c2ccccc2-c2nc3c(F)c(F)c(F)c(F)c3n21
fluorescence lifetime (in ClCCl): 9.5 ns

CCn1c2ccccc2c2cc(C#Cc3cc(C#Cc4ccc5c(c4)c4ccccc4n5CC)ncn3)ccc21
fluorescence lifetime (in C1CCOC1): 2.32 ns

Cn1c(/C=C/c2ccc(/C=C/c3nc4ccccc4[nH]3)cc2)[n+](C)c2ccccc21
fluorescence lifetime (in C1CCOC1): 1.43 ns | fluorescence lifetime (in CC#N): 1.16 ns | fluorescence lifetime (in CC(C)=O): 1.15 ns | fluorescence lifetime (in CN(C)C=O): 1.11 ns | fluorescence lifetime (in CO): 0.773 ns | fluorescence lifetime (in CS(C)=O): 1.22 ns | fluorescence lifetime (in O): 0.42 ns

CCCCC(CC)Cn1c2cc(-c3ccc(N(c4ccccc4)c4ccccc4)cc3)c(C#N)cc2c2cc(C#N)c(-c3ccc(N(c4ccccc4)c4ccccc4)cc3)cc21 (configuration not stated)
fluorescence lifetime (in ClCCl): 3.23 ns

Cc1cc(=O)oc2ccc3ccc(O)cc3c12
fluorescence lifetime (in CC#N): 5.6 ns

C#CCNC1=C2C=C(c3cc4n(c3)[B-](F)(F)[N+]3=CC=CC3=C4c3c(C)cc(C)cc3C)C(C)=[N+]2[B-](F)(F)n2c(C)ccc21
fluorescence lifetime (in C1CCCCC1): 2.3 ns | fluorescence lifetime (in CCOC(C)=O): 0.58 ns

CCN(CC)c1ccc2c(c1)oc(=O)c1cc3c(-c4ccccc4)nn(C)c3nc12
fluorescence lifetime (in ClCCl): 18.9 ns

CCCC(=O)c1c2c(c(C(=O)CCC)c3c1OC(CC(=O)OC)(C(=O)OC)O3)OCO2
fluorescence lifetime (in CC#N): 22.5 ns | fluorescence lifetime (in CCCCCC): 18.5 ns | fluorescence lifetime (in CCO): 17.7 ns | fluorescence lifetime (in CO): 11.9 ns | fluorescence lifetime (in ClCCl): 25.1 ns

CN(C)c1ccc(-c2cc(-c3ccc4ccccc4c3)nc(-c3ccccc3)n2)cc1
fluorescence lifetime (in C1CCCCC1): 2.9 ns | fluorescence lifetime (in CS(C)=O): 1.6 ns | fluorescence lifetime (in ClC(Cl)Cl): 2.4 ns

CCCCOc1ccc(-c2cc3c(o2)c(-c2ccc(OCCCC)cc2)c2n3[B-](F)(F)[N+]3=Cc4c(-c5ccc(OCCCC)cc5)c5oc(-c6ccc(OCCCC)cc6)cc5n4[B-](F)(F)[N+]3=C2)cc1
fluorescence lifetime (in ClCCl): 2.59 ns

CCN(CC)c1ccc2c(c1)oc(=O)c1cc3c(-c4ccccc4)nn(-c4ccccc4)c3nc12
fluorescence lifetime (in ClCCl): 17.9 ns

O=[N+]([O-])c1cccc2c1ccc1[n+]2[B-](F)(F)n2c-1cc1c3ccccc3c3ccccc3c12
fluorescence lifetime (in ClCCl): 2.67 ns

C(=C\c1ccc(Nc2ccccc2)cc1)/c1ccccc1
fluorescence lifetime (in CC#N): 0.39 ns | fluorescence lifetime (in CCCCCC): 0.34 ns

Cn1c(=O)cc(C(=O)c2ccccc2)c2sc(-c3ccc(N(c4ccccc4)c4ccccc4)cc3)cc21
fluorescence lifetime (in ClCCl): 0.99 ns

COc1cc2c(cc1-c1ccc(Cl)cc1)Cc1c3c(c4c(c1-2)-c1cc(OC)c(-c2ccc(Cl)cc2)cc1C4)C(=O)N(CCC(C)C)C3=O
fluorescence lifetime (in C1CCOC1): 3.05 ns

N#Cc1cc(-n2c3ccccc3c3ccccc32)c(-n2c3ccccc3c3ccccc32)cc1C#N
fluorescence lifetime (in Cc1ccccc1): 28.5 ns

c1ccc(N(c2ccccc2)c2ccc(-c3ccc(-c4cc(-c5ccccn5)nc(-c5ccccn5)c4)cc3)cc2)cc1
fluorescence lifetime (in ClCCl): 2.68 ns

CCCCCCCCCCCCCCCCCCN1C(=O)c2ccc3c4ccc5c6c(ccc(c7ccc(c2c37)C1=O)c64)C(=O)NC5=O
fluorescence lifetime (in CN(C)C=O): 3 ns

Cc1cc(C)c2c(c1)c1cc(C)cc(C)c1n2-c1ccc2c(c1)Oc1cc3c(cc1B2c1c(C(C)C)cc(C(C)C)cc1C(C)C)B(c1c(C(C)C)cc(C(C)C)cc1C(C)C)c1ccccc1O3
fluorescence lifetime (in Cc1ccccc1): 21 ns | fluorescence lifetime (in O=P(c1ccccc1)(c1ccccc1)c1ccc2oc3ccc(P(=O)(c4ccccc4)c4ccccc4)cc3c2c1): 25 ns

CN(C)c1ccc(C2=Nc3scc(-c4ccc([N+](=O)[O-])cc4)[n+]3[B-](F)(F)O2)cc1
fluorescence lifetime (in C1CCOC1): 1.64 ns

CC1=N/C(=C\c2cc(N(C)C)ccc2C#N)C(=O)N1C
fluorescence lifetime (in C1CCOC1): 14.8 ns | fluorescence lifetime (in CC#N): 7 ns | fluorescence lifetime (in CCCCCC): 24.7 ns

CCOC(=O)COc1ccc(/C=C/c2cc(C)c3n2[B-](F)(F)[N+]2=C(c4[nH]c(C)cc4C)c4ccccc4C2=C3)cc1
fluorescence lifetime (in ClCCl): 5.14 ns

COc1cc(OC)c2c(c1)c1cc3oc(=O)cc(C)c3cc1c1cc(OC)cc(OC)c12
fluorescence lifetime (in ClC(Cl)Cl): 7.5 ns

COc1ccc(-c2nc(-c3ccccc3O)c(-c3ccccc3O)n2-c2ccc(C)cc2)cc1
fluorescence lifetime (in C1CCOC1): 2.51 ns | fluorescence lifetime (in CS(C)=O): 1.6 ns | fluorescence lifetime (in ClC(Cl)Cl): 1.78 ns | fluorescence lifetime (in ClCCl): 2.56 ns

CCCCC(CC)CN1C(=O)c2cc(Oc3ccc(C(C)(C)C)cc3)c3c4c(Oc5ccc(OC)cc5)cc5c6c(cc(Oc7ccc(OC)cc7)c(c7c(Oc8ccc(C(C)(C)C)cc8)cc(c2c37)C1=O)c64)C(=O)N(c1c(C(C)C)cccc1C(C)C)C5=O (configuration not stated)
fluorescence lifetime (in Cc1ccccc1): 5.25 ns

c1ccc(-c2cc(-c3ccc4ccc5cccc6ccc3c4c56)ccn2)nc1
fluorescence lifetime (in C1CCOC1): 6.5 ns | fluorescence lifetime (in CC#N): 4.7 ns | fluorescence lifetime (in CCC#N): 4.6 ns | fluorescence lifetime (in CCCC#N): 5.5 ns | fluorescence lifetime (in CCCCCC): 8.1 ns | fluorescence lifetime (in CCCO): 3.5 ns | fluorescence lifetime (in CCO): 3.5 ns | fluorescence lifetime (in CO): 3.1 ns | fluorescence lifetime (in Cc1ccccc1): 6 ns

c1ccc2c(c1)c1ccccc1n2-c1ccc2cc(-c3ccc(-c4ccc(-c5cc6ccc(-n7c8ccccc8c8ccccc87)cc6o5)cc4)cc3)oc2c1
fluorescence lifetime (in Cc1ccccc1): 0.97 ns | fluorescence lifetime (in c1ccc2c(c1)c1ccccc1n2-c1ccc(-c2ccc(-n3c4ccccc4c4ccccc43)cc2)cc1): 1.5 ns

CCOC(=O)c1ccc2c(c1)[se]c1c3ccc(C(=O)OCC)cc3n(C)c21
fluorescence lifetime (in CCCO): 0.175 ns

CC1(C)C(/C=C/C2=C(c3ccc(C(=O)O)cc3)C(=C/C=C3/N(CCCCS(=O)(=O)[O-])c4ccccc4C3(C)C)/CC2)=[N+](CCCCS(=O)(=O)[O-])c2ccccc21
fluorescence lifetime (in CC(C)=O): 1.13 ns | fluorescence lifetime (in CCO): 0.87 ns | fluorescence lifetime (in CO): 0.83 ns | fluorescence lifetime (in CS(C)=O): 1.11 ns | fluorescence lifetime (in ClC(Cl)Cl): 1.25 ns | fluorescence lifetime (in ClCCl): 1.17 ns | fluorescence lifetime (in O): 0.36 ns

CNc1ccc2c(c1)C(=O)c1ccccc1-2
fluorescence lifetime (in C1CCCCC1): 3.1 ns | fluorescence lifetime (in c1ccccc1): 0.63 ns

COc1ccc(-c2nc3ccccc3nc2/C=C/N2CCCC2)s1
fluorescence lifetime (in C1CCCCC1): 0.79 ns | fluorescence lifetime (in C1CCOC1): 2.79 ns | fluorescence lifetime (in CC#N): 5.78 ns | fluorescence lifetime (in CC(C)=O): 5.1 ns | fluorescence lifetime (in CCO): 0.67 ns | fluorescence lifetime (in CO): 0.22 ns | fluorescence lifetime (in CS(C)=O): 4.88 ns | fluorescence lifetime (in Cc1ccccc1): 1.25 ns | fluorescence lifetime (in ClCCl): 3.28 ns

CCCCCCCCCCc1cc(-c2cc(CCCCCCCCCC)c(-c3cccs3)s2)sc1-c1cccs1
fluorescence lifetime (in CCC(C)C): 0.38 ns

COc1ccc(-c2csc(/C(C#N)=C/c3ccncc3)n2)cc1
fluorescence lifetime (in CC#N): 1.92 ns

CCOC(=O)CCCCCn1c2ccc(N)cc2c(=O)c2cc3c(cc21)c(=O)c1cc(N)ccc1n3CCCCCC(=O)OCC
fluorescence lifetime (in ClCCl): 15.6 ns

CCOC(=O)C(C(=O)OCC)C1=[N+]2C(=C(c3ccc(C)cc3)c3ccc(Cl)n3[B-]2(F)F)C=C1
fluorescence lifetime (in C1CCCCC1): 2.69 ns | fluorescence lifetime (in C1CCOC1): 2.5 ns | fluorescence lifetime (in CCOC(C)=O): 2.31 ns | fluorescence lifetime (in CO): 2.02 ns | fluorescence lifetime (in Cc1ccccc1): 3.63 ns | fluorescence lifetime (in ClC(Cl)Cl): 3.67 ns

CN(C)C(=O)c1ccc(-c2nc3ccc(N(C)C)cc3s2)cc1
fluorescence lifetime (in C1CCCCC1): 2 ns

COc1ccc(-c2cc3c(s2)c(C(C)=O)cc(=O)n3Cc2ccccc2)cc1
fluorescence lifetime (in ClCCl): 1.94 ns

CCOC(=O)CN1C(=O)C2=C(c3ccc(C#N)cc3)N(CC(=O)OCC)C(=O)C2=C1c1ccc(C#N)cc1
fluorescence lifetime (in CC#N): 6.67 ns | fluorescence lifetime (in CS(C)=O): 6.5 ns | fluorescence lifetime (in Cc1ccccc1): 6.48 ns

c1ccc(-[c+]2c3ccccc3sc3ccccc32)cc1
fluorescence lifetime (in CC#N): 1 ns

CC1(C)c2ccccc2N(c2ccc(-c3cccc(C#N)c3)cc2)c2ccccc21
fluorescence lifetime (in N#Cc1ccc2c(c1)c1ccccc1n2-c1cccc(-n2c3ccccc3c3ccccc32)c1): 6.53 ns

c1ccc(-c2nnc(-c3cc(-c4nnc(-c5ccccc5)o4)c(-n4c5ccccc5c5ccccc54)cc3-n3c4ccccc4c4ccccc43)o2)cc1
fluorescence lifetime (in Cc1ccccc1): 4.9 ns | fluorescence lifetime (in O=P(c1ccccc1)(c1ccccc1)c1ccccc1Oc1ccccc1P(=O)(c1ccccc1)c1ccccc1): 8.6 ns

FC(F)(F)c1ccc(/C2=C3N=C(C(c4ccccc4)=C/3c3ccccc3)/C(c3ccc(C(F)(F)F)cc3)=c3\[nH]/c(c(-c4ccccc4)c3-c3ccccc3)=C(/c3ccc(C(F)(F)F)cc3)C3=N/C(=C(/c4ccc(C(F)(F)F)cc4)c4[nH]c2c(-c2ccccc2)c4-c2ccccc2)C(c2ccccc2)=C3c2ccccc2)cc1
fluorescence lifetime (in ClCCl): 0.423 ns

c1ccc(N(c2ccccc2)c2ccc(N(c3ccccc3)c3ccc4ccc5c(N(c6ccccc6)c6ccc(N(c7ccccc7)c7ccccc7)cc6)ccc6ccc3c4c65)cc2)cc1
fluorescence lifetime (in ClCCl): 2.7 ns

COC(=O)c1cc(=O)n(Cc2ccccc2)c2cc(-c3ccc(OC)cc3)sc12
fluorescence lifetime (in ClCCl): 2.06 ns

CN(C)c1c2ccccc2cc2ccccc12
fluorescence lifetime (in C1CCCCC1): 4.3 ns | fluorescence lifetime (in C1CCOC1): 5.3 ns | fluorescence lifetime (in C1COCCO1): 0.8 ns | fluorescence lifetime (in CC#N): 3.9 ns | fluorescence lifetime (in CCO): 5.1 ns | fluorescence lifetime (in CN(C)C=O): 6.5 ns | fluorescence lifetime (in CO): 4 ns | fluorescence lifetime (in COCCOC): 4.8 ns | fluorescence lifetime (in CS(C)=O): 8.2 ns | fluorescence lifetime (in O): 5.7 ns | fluorescence lifetime (in OCC(O)CO): 8.9 ns | fluorescence lifetime (in OCCO): 7 ns

Nc1ccc2cc3ccccc3cc2c1
fluorescence lifetime (in C1CCCCC1): 33 ns

COc1ccc(N(c2ccc(OC)cc2)c2ccc(-c3ccc(-c4ccc(-c5cccs5)c5nsnc45)s3)cc2)cc1
fluorescence lifetime (in ClC(Cl)Cl): 6.55 ns

COc1ccc(C(=O)NN2C3=C(CC4=C2CCCC4=O)C(=O)CCC3)cc1
fluorescence lifetime (in CC#N): 6.2 ns | fluorescence lifetime (in CC(C)=O): 5.4 ns | fluorescence lifetime (in CCCCCO): 6.1 ns | fluorescence lifetime (in CO): 4.7 ns | fluorescence lifetime (in ClC(Cl)Cl): 6.2 ns | fluorescence lifetime (in ClCCl): 8.3 ns

CCN(CC)c1ccc2c(c1)OC1=CC(N(CC)CC)C=CC1[C+]2c1ccccc1C(=O)O (configuration not stated)
fluorescence lifetime (in CC(C)O): 2.69 ns | fluorescence lifetime (in CCCCCCCCO): 3.18 ns | fluorescence lifetime (in CCCCCCO): 3.09 ns | fluorescence lifetime (in CCCCO): 2.98 ns | fluorescence lifetime (in CCCO): 2.79 ns | fluorescence lifetime (in CCO): 2.45 ns | fluorescence lifetime (in CO): 2.15 ns | fluorescence lifetime (in O): 1.52 ns | fluorescence lifetime (in [2H]O[2H]): 1.64 ns

CN(C)c1ccc2c(-c3ccc(C(=O)[O-])cc3C(=O)[O-])c3ccc(=[N+](C)C)cc-3oc2c1
fluorescence lifetime (in CCO): 3.26 ns | fluorescence lifetime (in O): 2.44 ns

O=C(O)c1ccccc1-c1nc(-c2ccccc2)c2ccccn12
fluorescence lifetime (in CC#N): 5.5 ns

CC1=C2c3ccccc3C(c3[nH]c(C)cc3C)=[N+]2[B-](F)(F)n2c(C)cc(C)c21
fluorescence lifetime (in ClCCl): 7.3 ns

O=[N+]([O-])c1ccc(C#Cc2ccc3ccc(C#Cc4ccc([N+](=O)[O-])cc4)cc3c2)cc1
fluorescence lifetime (in ClCCl): 0.27 ns
